Reference: patent publication US5358951A, “Angiotensin II receptor blocking 2, 3, 6 substituted quinazolinones” (American Cyanamid Company, priority 1993, dated 1994)

System: vasopressor response of angiotensin II
Experiment: AII Challenge: antagonism of angiotensin II vasopressor response
Type: in vivo
Details: for inhibition in vivo at 1 mg/kg / inhibition in vivo at 3 mg/kg / inhibition in vivo at 5 mg/kg: Rattus norvegicus; for inhibition in vivo at 1 mg/kg / inhibition in vivo at 3 mg/kg: iv; for inhibition in vivo at 5 mg/kg: po
How it was run: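 Percent antagonism is based on the systolic blood pressure rise (mmHg) to i.v. angiotensin II at 0.05 and 0.1 ug/kg. Each rat's own predose response was taken as 100%. Challenges were repeated from 30 to 300 min after i.v., i.p. or oral compound in cannulated conscious male SHR, 16-20 weeks old.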

[1] = 1 mg/kg i.v., AII 0.05 mcg/kg IV, 30 min post dose
[2] = 1 mg/kg i.v., AII 0.05 mcg/kg IV, 60 min post dose
[3] = 1 mg/kg i.v., AII 0.05 mcg/kg IV, 90 min post dose
[4] = 1 mg/kg i.v., AII 0.05 mcg/kg IV, 120 min post dose
[5] = 1 mg/kg i.v., AII 0.05 mcg/kg IV, 180 min post dose
[6] = 1 mg/kg i.v., AII 0.05 mcg/kg IV, 240 min post dose
[7] = 1 mg/kg i.v., AII 0.05 mcg/kg IV, 300 min post dose
[8] = 1 mg/kg i.v., AII 0.1 mcg/kg IV, 30 min post dose
[9] = 1 mg/kg i.v., AII 0.1 mcg/kg IV, 60 min post dose
[10] = 1 mg/kg i.v., AII 0.1 mcg/kg IV, 90 min post dose
[11] = 1 mg/kg i.v., AII 0.1 mcg/kg IV, 120 min post dose
[12] = 1 mg/kg i.v., AII 0.1 mcg/kg IV, 180 min post dose
[13] = 1 mg/kg i.v., AII 0.1 mcg/kg IV, 240 min post dose
[14] = 1 mg/kg i.v., AII 0.1 mcg/kg IV, 300 min post dose
[15] = 0.5 h, 1 mg/kg i.v., AII 0.05 mcg/kg IV, 30 min post dose
[16] = 0.5 h, 1 mg/kg i.v., AII 0.1 mcg/kg IV, 30 min post dose
[17] = 1 h, 1 mg/kg i.v., AII 0.05 mcg/kg IV, 60 min post dose
[18] = 1 h, 1 mg/kg i.v., AII 0.1 mcg/kg IV, 60 min post dose
[19] = 2 h, 1 mg/kg i.v., AII 0.05 mcg/kg IV, 120 min post dose
[20] = 2 h, 1 mg/kg i.v., AII 0.1 mcg/kg IV, 120 min post dose
[21] = 3 h, 1 mg/kg i.v., AII 0.05 mcg/kg IV, 180 min post dose
[22] = 3 h, 1 mg/kg i.v., AII 0.1 mcg/kg IV, 180 min post dose
[23] = 4 h, 1 mg/kg i.v., AII 0.05 mcg/kg IV, 240 min post dose
[24] = 5 h, 1 mg/kg i.v., AII 0.05 mcg/kg IV, 300 min post dose
[25] = 5 h, 1 mg/kg i.v., AII 0.1 mcg/kg IV, 300 min post dose
[26] = […], 1 mg/kg i.v., AII 0.05 mcg/kg IV, 90 min post dose
[27] = […], 1 mg/kg i.v., AII 0.1 mcg/kg IV, 90 min post dose

With CCCCc1nc2ccc([C@@]3(c4ccccc4)C[C@@H]4CCCN4O3)cc2c(=O)n1Cc1ccc(-c2ccccc2-c2nnn[nH]2)cc1 (relative stereo) [Example 70, Cis-2-butyl-6-(hexahydro-2-phenylpyrrolo-[1,2-b]isoxazol-2-yl)-3-[[2'-(1H-tetrazol-5-yl)[1,1'-biphenyl]-4-yl]methyl]-4(3H)-quinazolinone] the “Response Average Change” value [1] was 23.5 mmHg, the “Response Average Change” value [2] was 12.5 mmHg and the “Response Average Change” value [3] was 12.5 mmHg. The “Response Average Change” value [4] was 20 mmHg, the “Response Average Change” value [5] was 20 mmHg and the “Response Average Change” value [6] was 27.5 mmHg. For the same compound, the “Response Average Change” value [7] was 30 mmHg, the “Response Average Change” value [8] was 30 mmHg and the “Response Average Change” value [9] was 17.5 mmHg. The “Response Average Change” value [10] was 30.5 mmHg, the “Response Average Change” value [11] was 26 mmHg and the “Response Average Change” value [12] was 30 mmHg. The “Response Average Change” value [13] was 30 mmHg, the “Response Average Change” value [14] was 37.5 mmHg and the inhibition in vivo at 1 mg/kg [15] was 48%. It also gave an inhibition in vivo at 1 mg/kg [16] of 37%, an inhibition in vivo at 1 mg/kg [17] of 72% and an inhibition in vivo at 1 mg/kg [18] of 63%. For the same compound, the inhibition in vivo at 1 mg/kg [19] was 56%, the inhibition in vivo at 1 mg/kg [20] was 45% and the inhibition in vivo at 1 mg/kg [21] was 56%. It also gave an inhibition in vivo at 1 mg/kg [22] of 37%, an inhibition in vivo at 1 mg/kg [23] of 39% and an inhibition in vivo at 1 mg/kg (4 h, 1 mg/kg i.v., AII 0.1 mcg/kg IV, 240 min post dose) of 37%. It also gave an inhibition in vivo at 1 mg/kg [24] of 33%, an inhibition in vivo at 1 mg/kg [25] of 21% and an inhibition in vivo at 1 mg/kg [26] of 72%. It also gave an inhibition in vivo at 1 mg/kg [27] of 36%.

For CCCCc1nc2ccc([C@]3(CC)C[C@@H]4CCCN4O3)cc2c(=O)n1Cc1ccc(-c2ccccc2-c2nnn[nH]2)cc1 (relative stereo) [Example 72, Trans-2-butyl-6-(2-ethylhexahydropyrrolo[1,2-b]isoxazol-2-yl)-3-[[2'-(1H-tetrazol-5-yl)[1,1'-biphenyl]-4-yl]methyl]-4(3H)-quinazolinone], the “Response Average Change” value [1] was 20 mmHg, the “Response Average Change” value [2] was 15 mmHg and the “Response Average Change” value [3] was 17.5 mmHg. The “Response Average Change” value [4] was 22.5 mmHg, the “Response Average Change” value [5] was 36.5 mmHg and the “Response Average Change” value [6] was 30 mmHg. The “Response Average Change” value [7] was 37.5 mmHg, the “Response Average Change” value [8] was 25.5 mmHg and the “Response Average Change” value [9] was 17.5 mmHg. The “Response Average Change” value [10] was 32.5 mmHg, the “Response Average Change” value [11] was 25 mmHg and the “Response Average Change” value [12] was 35 mmHg. For the same compound, the “Response Average Change” value [13] was 40 mmHg, the “Response Average Change” value [14] was 42.5 mmHg and the inhibition in vivo at 1 mg/kg [15] was 60%. For the same compound, the inhibition in vivo at 1 mg/kg [16] was 58%, the inhibition in vivo at 1 mg/kg [17] was 70% and the inhibition in vivo at 1 mg/kg [18] was 71%. For the same compound, the inhibition in vivo at 1 mg/kg [19] was 55%, the inhibition in vivo at 1 mg/kg [20] was 58% and the inhibition in vivo at 1 mg/kg [21] was 27%. The inhibition in vivo at 1 mg/kg [22] was 42%, the inhibition in vivo at 1 mg/kg [23] was 40% and the inhibition in vivo at 1 mg/kg [24] was 35%. The inhibition in vivo at 1 mg/kg [25] was 29%, the inhibition in vivo at 1 mg/kg [26] was 65% and the inhibition in vivo at 1 mg/kg [27] was 46%.

CCCCc1nc2ccc(C3ON4CCCC4C3C(=O)OCC)cc2c(=O)n1Cc1ccc(-c2ccccc2-c2nnn[nH]2)cc1 (centres unmarked) [Example 62, Ethyl 2-[2-butyl-3,4-dihydro-4-oxo-3-[[2'-(1H-tetrazol-5-yl)[1,1'-biphenyl]-4-yl]methyl]-6quinazolinyl]hexahydro-pyrrolo[1,2-b]isoxazole3-carboxylate] was tested, and the “Response Average Change” value (3 mg/kg I.V., AII 0.05 mcg/kg IV, 30 min post dose) was 14 mmHg, the “Response Average Change” value (3 mg/kg I.V., AII 0.05 mcg/kg IV, 60 min post dose) was 18 mmHg and the “Response Average Change” value (3 mg/kg I.V., AII 0.05 mcg/kg IV, 90 min post dose) was 30 mmHg. For the same compound, the “Response Average Change” value (3 mg/kg I.V., AII 0.05 mcg/kg IV, 120 min post dose) was 25 mmHg, the “Response Average Change” value (3 mg/kg I.V., AII 0.05 mcg/kg IV, 180 min post dose) was 33.5 mmHg and the “Response Average Change” value (3 mg/kg I.V., AII 0.1 mcg/kg IV, 30 min post dose) was 10 mmHg. The “Response Average Change” value (3 mg/kg I.V., AII 0.1 mcg/kg IV, 60 min post dose) was 36 mmHg, the “Response Average Change” value (3 mg/kg I.V., AII 0.1 mcg/kg IV, 90 min post dose) was 40 mmHg and the “Response Average Change” value (3 mg/kg I.V., AII 0.1 mcg/kg IV, 120 min post dose) was 35 mmHg. The “Response Average Change” value (3 mg/kg I.V., AII 0.1 mcg/kg IV, 180 min post dose) was 35 mmHg, the “Response Average Change” value (5 mg/kg P.O., AII 0.05 mcg/kg IV, 30 min post dose) was 22.5 mmHg and the “Response Average Change” value (5 mg/kg P.O., AII 0.05 mcg/kg IV, 60 min post dose) was 37.5 mmHg. For the same compound, the “Response Average Change” value (5 mg/kg P.O., AII 0.05 mcg/kg IV, 120 min post dose) was 40 mmHg, the “Response Average Change” value (5 mg/kg P.O., AII 0.05 mcg/kg IV, 180 min post dose) was 25 mmHg and the “Response Average Change” value (5 mg/kg P.O., AII 0.05 mcg/kg IV, 240 min post dose) was 40 mmHg. For the same compound, the “Response Average Change” value (5 mg/kg P.O., AII 0.1 mcg/kg IV, 30 min post dose) was 43.5 mmHg, the “Response Average Change” value (5 mg/kg P.O., AII 0.1 mcg/kg IV, 60 min post dose) was 43.5 mmHg and the “Response Average Change” value (5 mg/kg P.O., AII 0.1 mcg/kg IV, 90 min post dose) was 45 mmHg. The “Response Average Change” value (5 mg/kg P.O., AII 0.1 mcg/kg IV, 120 min post dose) was 45 mmHg, the “Response Average Change” value (5 mg/kg P.O., AII 0.1 mcg/kg IV, 180 min post dose) was 47.5 mmHg and the “Response Average Change” value (5 mg/kg P.O., AII 0.1 mcg/kg IV, 240 min post dose) was 50 mmHg. For the same compound, the inhibition in vivo at 3 mg/kg (0.5 h, 3 mg/kg I.V., AII 0.05 mcg/kg IV, 30 min post dose) was 61%, the inhibition in vivo at 3 mg/kg (0.5 h, 3 mg/kg I.V., AII 0.1 mcg/kg IV, 30 min post dose) was 82% and the inhibition in vivo at 3 mg/kg (1 h, 3 mg/kg I.V., AII 0.05 mcg/kg IV, 60 min post dose) was 49%. For the same compound, the inhibition in vivo at 3 mg/kg (1 h, 3 mg/kg I.V., AII 0.1 mcg/kg IV, 60 min post dose) was 36%, the inhibition in vivo at 3 mg/kg (2 h, 3 mg/kg I.V., AII 0.05 mcg/kg IV, 120 min post dose) was 30% and the inhibition in vivo at 3 mg/kg (2 h, 3 mg/kg I.V., AII 0.1 mcg/kg IV, 120 min post dose) was 38%. The inhibition in vivo at 3 mg/kg (3 h, 3 mg/kg I.V., AII 0.05 mcg/kg IV, 180 min post dose) was 6%, the inhibition in vivo at 3 mg/kg (3 h, 3 mg/kg I.V., AII 0.1 mcg/kg IV, 180 min post dose) was 38% and the inhibition in vivo at 3 mg/kg ([…], 3 mg/kg I.V., AII 0.05 mcg/kg IV, 90 min post dose) was 15%. It also gave an inhibition in vivo at 3 mg/kg ([…], 3 mg/kg I.V., AII 0.1 mcg/kg IV, 90 min post dose) of 29%, an inhibition in vivo at 5 mg/kg (0.5 h, 5 mg/kg P.O., AII 0.05 mcg/kg IV, 30 min post dose) of 44% and an inhibition in vivo at 5 mg/kg (0.5 h, 5 mg/kg P.O., AII 0.1 mcg/kg IV, 30 min post dose) of -5%. The inhibition in vivo at 5 mg/kg (1 h, 5 mg/kg P.O., AII 0.05 mcg/kg IV, 60 min post dose) was 6%, the inhibition in vivo at 5 mg/kg (1 h, 5 mg/kg P.O., AII 0.1 mcg/kg IV, 60 min post dose) was -5% and the inhibition in vivo at 5 mg/kg (2 h, 5 mg/kg P.O., AII 0.05 mcg/kg IV, 120 min post dose) was 0%. For the same compound, the inhibition in vivo at 5 mg/kg (2 h, 5 mg/kg P.O., AII 0.1 mcg/kg IV, 120 min post dose) was -8%, the inhibition in vivo at 5 mg/kg (3 h, 5 mg/kg P.O., AII 0.05 mcg/kg IV, 180 min post dose) was 38% and the inhibition in vivo at 5 mg/kg (3 h, 5 mg/kg P.O., AII 0.1 mcg/kg IV, 180 min post dose) was -14%. The inhibition in vivo at 5 mg/kg (4 h, 5 mg/kg P.O., AII 0.05 mcg/kg IV, 240 min post dose) was 0%, the inhibition in vivo at 5 mg/kg (4 h, 5 mg/kg P.O., AII 0.1 mcg/kg IV, 240 min post dose) was -20% and the inhibition in vivo at 5 mg/kg ([…], 5 mg/kg P.O., AII 0.05 mcg/kg IV, 90 min post dose) was 19%. It also gave an inhibition in vivo at 5 mg/kg ([…], 5 mg/kg P.O., AII 0.1 mcg/kg IV, 90 min post dose) of -8%.
